pIC50: −log10 of the molar value.
How the values were obtained:
[1] = Human microsome stability assay; conditions: 1 μM compound, 0.5 mg/mL liver microsomal protein, 1 mM NADPH, 37° C., 0-30 minutes
[2] = target: T1, recombinant human Myt1 (full length PKMYT1) (Homo sapiens, UniProt Q99640); assay: ADP-Glo assay (Myt1 kinase activity)
T1 sequence (Q99640 1-499): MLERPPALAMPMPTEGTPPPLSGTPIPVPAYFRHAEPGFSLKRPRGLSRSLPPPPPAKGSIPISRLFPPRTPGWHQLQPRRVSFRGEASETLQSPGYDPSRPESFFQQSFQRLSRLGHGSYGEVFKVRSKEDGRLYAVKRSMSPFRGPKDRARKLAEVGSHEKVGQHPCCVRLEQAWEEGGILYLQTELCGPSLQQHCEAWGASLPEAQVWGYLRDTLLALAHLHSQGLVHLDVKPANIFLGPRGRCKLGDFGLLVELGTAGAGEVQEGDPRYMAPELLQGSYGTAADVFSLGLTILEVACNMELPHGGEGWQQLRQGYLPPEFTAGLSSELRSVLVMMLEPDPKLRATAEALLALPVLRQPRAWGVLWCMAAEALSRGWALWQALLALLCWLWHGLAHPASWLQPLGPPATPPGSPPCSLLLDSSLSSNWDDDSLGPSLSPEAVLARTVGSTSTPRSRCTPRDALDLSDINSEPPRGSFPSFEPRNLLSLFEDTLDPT

With Cc1cc(Cl)c2[nH]c(=O)c(N)c(-c3ccc(F)c4[nH]ncc34)c2n1 [Example 090, 3-Amino-8-chloro-4-(7-fluoro-1H-indazol-4-yl)-6-methyl-1H-1,5-naphthyridin-2-one] the “Clearance of Human microsome” value [1] was 6.15 mL/min/kg and the pIC50 [2] was 7.89.
For Cc1cc2[nH]c(=O)c(N)c(-c3ccc(F)c4[nH]ncc34)c2nc1C#CC(C)O (centres unmarked) [Example 074, 3-Amino-4-(7-fluoro-1H-indazol-4-yl)-6-(3-hydroxybut-1-ynyl)-7-methyl-1H-1,5-naphthyridin-2-one], the “Clearance of Human microsome” value [1] was 6.15 mL/min/kg and the pIC50 [2] was 7.96.
In the case of Cc1nc(C2CC2)cc2[nH]c(=O)c(N)c(-c3ccc(F)c4[nH]ncc34)c12 [Example 166, 3-Amino-7-cyclopropyl-4-(7-fluoro-1H-indazol-4-yl)-5-methyl-1H-1,6-naphthyridin-2-one], the “Clearance of Human microsome” value [1] was 6.15 mL/min/kg and the pIC50 [2] was 7.83.
In the case of Cc1c(C#N)cnc2c(-c3ccc(F)c4[nH]ncc34)c(N)c(=O)[nH]c12 [Example 118, 7-Amino-8-(7-fluoro-1H-indazol-4-yl)-4-methyl-6-oxo-5H-1,5-naphthyridine-3-carbonitrile], the “Clearance of Human microsome” value [1] was 6.15 mL/min/kg and the pIC50 [2] was 7.75.
For Cc1cc2[nH]c(=O)c(N)c(-c3ccc(F)c4[nH]ncc34)c2nc1C1CN(C)C1 [Example 098, 3-Amino-4-(7-fluoro-1H-indazol-4-yl)-7-methyl-6-(1-methylazetidin-3-yl)-1H-1,5-naphthyridin-2-one], the “Clearance of Human microsome” value [1] was 7.72 mL/min/kg and the pIC50 [2] was 7.73.
In the case of Cc1cc2[nH]c(=O)c(N)c(-c3ccc(F)c4[nH]ncc34)c2nc1C#CC1COCC1O (centres unmarked) [Example 073, 3-Amino-4-(7-fluoro-1H-indazol-4-yl)-6-[2-(4-hydroxytetrahydrofuran-3-yl)ethynyl]-7-methyl-1H-1,5-naphthyridin-2-one], the “Clearance of Human microsome” value [1] was 6.15 mL/min/kg and the pIC50 [2] was 7.85.
For Cc1cc(Cl)nc2c(-c3ccc(F)c4[nH]ncc34)c(N)c(=O)[nH]c12 [Example 091, 3-Amino-6-chloro-4-(7-fluoro-1H-indazol-4-yl)-8-methyl-1H-1,5-naphthyridin-2-one], the “Clearance of Human microsome” value [1] was 6.15 mL/min/kg and the pIC50 [2] was 7.85.
With Cc1cc2[nH]c(=O)c(N)c(-c3ccc(F)c4[nH]ncc34)c2nc1C#N [Example 092, 7-Amino-8-(7-fluoro-1H-indazol-4-yl)-3-methyl-6-oxo-5H-1,5-naphthyridine-2-carbonitrile] the “Clearance of Human microsome” value [1] was 6.15 mL/min/kg and the pIC50 [2] was 7.84.
In the case of COc1ncc(C)c2[nH]c(=O)c(N)c(-c3ccc(F)c4[nH]ncc34)c12 [Example 172, 3-Amino-4-(7-fluoro-1H-indazol-4-yl)-5-methoxy-8-methyl-1H-1,6-naphthyridin-2-one], the “Clearance of Human microsome” value [1] was 6.20 mL/min/kg and the pIC50 [2] was 7.96.
For Cc1c(C2COC2)cnc2c(-c3ccc(F)c4[nH]ncc34)c(N)c(=O)[nH]c12 [Example 122, 3-Amino-4-(7-fluoro-1H-indazol-4-yl)-8-methyl-7-(oxetan-3-yl)-1H-1,5-naphthyridin-2-one], the “Clearance of Human microsome” value [1] was 6.15 mL/min/kg and the pIC50 [2] was > 8.00.
For Cc1c([S+](C)[O-])cnc2c(-c3ccc(F)c4[nH]ncc34)c(N)c(=O)[nH]c12 (centres unmarked) [Example 142, 3-Amino-4-(7-fluoro-1H-indazol-4-yl)-8-methyl-7-methylsulfinyl-1H-1,5-naphthyridin-2-one], the “Clearance of Human microsome” value [1] was 6.15 mL/min/kg and the pIC50 [2] was 7.74.
With Cc1c(S(C)(=O)=O)cnc2c(-c3ccc(F)c4[nH]ncc34)c(N)c(=O)[nH]c12 [Example 143, 3-Amino-4-(7-fluoro-1H-indazol-4-yl)-8-methyl-7-methylsulfonyl-1H-1,5-naphthyridin-2-one] the “Clearance of Human microsome” value [1] was 6.15 mL/min/kg and the pIC50 [2] was 7.96.
For Cc1c(N2CCC2)cnc2c(-c3ccc(F)c4[nH]ncc34)c(N)c(=O)[nH]c12 [Example 117, 3-Amino-7-(azetidin-1-yl)-4-(7-fluoro-1H-indazol-4-yl)-8-methyl-1H-1,5-naphthyridin-2-one], the “Clearance of Human microsome” value [1] was 7.72 mL/min/kg and the pIC50 [2] was 7.83.
With Cc1c(-c2ccnnc2)cnc2c(-c3ccc(F)c4[nH]ncc34)c(N)c(=O)[nH]c12 [Example 120, 3-Amino-4-(7-fluoro-1H-indazol-4-yl)-8-methyl-7-pyridazin-4-yl-1H-1,5-naphthyridin-2-one] the “Clearance of Human microsome” value [1] was 6.15 mL/min/kg and the pIC50 [2] was 7.76.
With Cc1c(C(C)(F)F)cnc2c(-c3ccc(F)c4[nH]ncc34)c(N)c(=O)[nH]c12 [Example 134, 3-Amino-7-(1,1-difluoroethyl)-4-(7-fluoro-1H-indazol-4-yl)-8-methyl-1H-1,5-naphthyridin-2-one] the “Clearance of Human microsome” value [1] was 6.15 mL/min/kg and the pIC50 [2] was > 8.00.
In the case of Cc1cc2[nH]c(=O)c(N)c(-c3ccc(F)c4[nH]ncc34)c2nc1C#CCN1CCOCC1 [Example 076, 3-Amino-4-(7-fluoro-1H-indazol-4-yl)-7-methyl-6-(3-morpholinoprop-1-ynyl)-1H-1,5-naphthyridin-2-one], the “Clearance of Human microsome” value [1] was 8.12 mL/min/kg and the pIC50 [2] was 7.83.
With Cc1cc2[nH]c(=O)c(N)c(-c3ccc(F)c4[nH]ncc34)c2nc1C1CCNCC1 [Example 069, 3-Amino-4-(7-fluoro-1H-indazol-4-yl)-7-methyl-6-(4-piperidyl)-1H-1,5-naphthyridin-2-one] the “Clearance of Human microsome” value [1] was 7.78 mL/min/kg and the pIC50 [2] was 7.96.
With Cc1cc2c(-c3ccc(F)c4[nH]ncc34)c(N)c(=O)[nH]c2nc1C [Example 107, 3-Amino-4-(7-fluoro-1H-indazol-4-yl)-6,7-dimethyl-1H-1,8-naphthyridin-2-one] the “Clearance of Human microsome” value [1] was 7.13 mL/min/kg and the pIC50 [2] was 7.65.
For Cc1nc2c(-c3ccc(F)c4[nH]ncc34)c(N)c(=O)[nH]c2c(C)c1C [Example 110, 3-Amino-4-(7-fluoro-1H-indazol-4-yl)-6,7,8-trimethyl-1H-1,5-naphthyridin-2-one], the “Clearance of Human microsome” value [1] was 6.15 mL/min/kg and the pIC50 [2] was 7.78.
With Cc1cc2[nH]c(=O)c(N)c(-c3ccc(F)c4[nH]ncc34)c2nc1N1CCNCC1 [Example 044, 3-Amino-4-(7-fluoro-1H-indazol-4-yl)-7-methyl-6-piperazin-1-yl-1H-1,5-naphthyridin-2-one] the “Clearance of Human microsome” value [1] was 6.15 mL/min/kg.
In the case of CC(C)(O)c1cnc2c(-c3ccc(F)c4[nH]ncc34)c(N)c(=O)[nH]c2c1 [Example 020, 3-Amino-4-(7-fluoro-1H-indazol-4-yl)-7-(1-hydroxy-1-methyl-ethyl)-1H-1,5-naphthyridin-2-one], the “Clearance of Human microsome” value [1] was 6.15 mL/min/kg.
In the case of Nc1c(-c2ccc(F)c3[nH]ncc23)c2ncc(-c3ccc(F)cn3)cc2[nH]c1=O [Example 014, 3-Amino-4-(7-fluoro-1H-indazol-4-yl)-7-(5-fluoro-2-pyridyl)-1H-1,5-naphthyridin-2-one], the “Clearance of Human microsome” value [1] was 6.15 mL/min/kg.
In the case of Cc1nc(C)c2[nH]c(=O)c(N)c(-c3ccc(F)c4[nH]ncc34)c2n1 [Example 084, 7-Amino-8-(7-fluoro-1H-indazol-4-yl)-2,4-dimethyl-5H-pyrido[3,2-d]pyrimidin-6-one], the “Clearance of Human microsome” value [1] was 6.15 mL/min/kg and the pIC50 [2] was > 8.00.
In the case of Nc1c(-c2cc(F)cc3[nH]ncc23)c2ncc(Cl)cc2[nH]c1=O [Example 036, 3-Amino-7-chloro-4-(6-fluoro-1H-indazol-4-yl)-1H-1,5-naphthyridin-2-one], the “Clearance of Human microsome” value [1] was 6.15 mL/min/kg.
In the case of Cc1cnc2c(-c3cccc4[nH]ncc34)c(N)c(=O)[nH]c2c1 [Example 033, 3-Amino-4-(1H-indazol-4-yl)-7-methyl-1H-1,5-naphthyridin-2-one], the “Clearance of Human microsome” value [1] was 6.22 mL/min/kg.
For Cc1nc(C#N)c2c(-c3ccc(F)c4[nH]ncc34)c(N)c(=O)[nH]c2c1C [Example 161, 3-Amino-4-(7-fluoro-1H-indazol-4-yl)-7,8-dimethyl-2-oxo-1H-1,6-naphthyridine-5-carbonitrile], the “Clearance of Human microsome” value [1] was 6.15 mL/min/kg and the pIC50 [2] was 7.81.
With Cc1ncc(OC(C)C)c2c(-c3ccc(F)c4[nH]ncc34)c(N)c(=O)[nH]c12 [Example 182, 3-Amino-4-(7-fluoro-1H-indazol-4-yl)-5-isopropoxy-8-methyl-1H-1,7-naphthyridin-2-one] the “Clearance of Human microsome” value [1] was 6.20 mL/min/kg and the pIC50 [2] was 7.83.
For Cc1nc2c(-c3ccc(F)c4[nH]ncc34)c(N)c(=O)[nH]c2c(C)c1Cl [Example 056, 3-Amino-7-chloro-4-(7-fluoro-1H-indazol-4-yl)-6,8-dimethyl-1H-1,5-naphthyridin-2-one], the “Clearance of Human microsome” value [1] was 7.47 mL/min/kg.
In the case of Cc1ncc(OC(F)F)c2c(-c3ccc(F)c4[nH]ncc34)c(N)c(=O)[nH]c12 [Example 185, 3-Amino-5-(difluoromethoxy)-4-(7-fluoro-1H-indazol-4-yl)-8-methyl-1H-1,7-naphthyridin-2-one], the “Clearance of Human microsome” value [1] was 6.15 mL/min/kg and the pIC50 [2] was 7.94.
For Cc1cc2[nH]c(=O)c(N)c(-c3ccc(F)c4[nH]ncc34)c2nc1C1CCN(C)CC1 [Example 082, 3-Amino-4-(7-fluoro-1H-indazol-4-yl)-7-methyl-6-(1-methyl-4-piperidyl)-1H-1,5-naphthyridin-2-one], the “Clearance of Human microsome” value [1] was 6.15 mL/min/kg and the pIC50 [2] was 7.79.
With Cc1cnc(Cl)c2c(-c3ccc(F)c4[nH]ncc34)c(N)c(=O)[nH]c12 [Example 164, 3-Amino-5-chloro-4-(7-fluoro-1H-indazol-4-yl)-8-methyl-1H-1,6-naphthyridin-2-one] the “Clearance of Human microsome” value [1] was 6.15 mL/min/kg and the pIC50 [2] was > 8.00.

— US20260078122A1, “INDAZOLE COMPOUNDS AS PKMYT1 KINASE INHIBITORS” (Hoffmann-La Roche Inc., priority 2023, published 2026)
